{"source": "paper PMC4257840", "about": "(Journal of Medicinal Chemistry, 2014)", "type_in_all_cases": "biochemical", "key": {"[1]": {"target": "T1, Factor Xa from human plasma (Homo sapiens, UniProt P00742)", "T1 construct": "containing 0.4 nM Factor Xa from human plasma; from tissue; host or cells: human plasma", "T1 sequence (P00742 235-488 limits assumed)": "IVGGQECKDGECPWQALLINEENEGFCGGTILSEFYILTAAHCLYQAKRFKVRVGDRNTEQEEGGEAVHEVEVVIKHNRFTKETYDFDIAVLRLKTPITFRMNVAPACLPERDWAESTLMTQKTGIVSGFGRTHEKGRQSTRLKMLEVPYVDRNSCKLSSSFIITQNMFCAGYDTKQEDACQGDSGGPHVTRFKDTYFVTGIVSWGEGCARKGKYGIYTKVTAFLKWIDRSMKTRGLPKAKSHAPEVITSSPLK", "T1 sequence (P00742 41-179 limits assumed)": "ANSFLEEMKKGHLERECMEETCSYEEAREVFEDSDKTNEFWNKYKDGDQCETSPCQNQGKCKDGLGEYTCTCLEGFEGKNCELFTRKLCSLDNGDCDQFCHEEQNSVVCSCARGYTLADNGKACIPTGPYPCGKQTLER", "experiment": "Protease counter-screening: Factor Xa", "procedure": "(§1) Appendix 7. Protease Counter -Screening\n(§2) Protease counter-screeni ng was performed using the methods described below. Initial screening was conducted in duplicate using a single test substance concentration of 10 µ M .\n(§3) Additional assays were conducted in replicate for selected pairin gs of test s ubstance and enz yme in order to enable the determination of IC50 values using conventional procedures.\n(§4) Determination of K i was made using the Batch K i program (Biokin Ltd, Pullman, WA) to derive values from the Morrison equation: […]\n(§5) Where [E ] is the active enz yme concentration, Kiapp is the apparent inhibition const ant, v 0 is the control velocit y in the absence of inhibitors, vb is the background velocity, v is the initial reaction velocit y in the presence of inhibitor, and I is the inhibitor concentration.Thence:\n(§6) Where [S ] is the substrate concentration and KM is the Michealis constant. […]\nTest compound or vehicle was pre- incubated with 600 […]\nThe reaction was […]\ninitiated by addition of 1 µM N-CH3-SO2-D-FGR-pNA for another 120 min incubation period.\nThe amount of pNA formed was read spectrophotometricall y at 405 nm.\nFactor Xa: Test compound or vehicle was pre -incubated for 15 min at 25 °C in modified 50 mM Tris-HCl buffer pH 7.6 containing 0.4 nM Factor Xa from human plasma. The reaction was initiated by addition of 0.3 mM N-a-Z-D-RGR-pNA for another 60 min incubation period. […]"}, "Human recombinant MMP-9": {"target": "T2, Human recombinant MMP-9 (Homo sapiens, UniProt P14780)", "T2 construct": "host or cells: mammalian cells", "T2 sequence (P14780 107-707 limits assumed)": "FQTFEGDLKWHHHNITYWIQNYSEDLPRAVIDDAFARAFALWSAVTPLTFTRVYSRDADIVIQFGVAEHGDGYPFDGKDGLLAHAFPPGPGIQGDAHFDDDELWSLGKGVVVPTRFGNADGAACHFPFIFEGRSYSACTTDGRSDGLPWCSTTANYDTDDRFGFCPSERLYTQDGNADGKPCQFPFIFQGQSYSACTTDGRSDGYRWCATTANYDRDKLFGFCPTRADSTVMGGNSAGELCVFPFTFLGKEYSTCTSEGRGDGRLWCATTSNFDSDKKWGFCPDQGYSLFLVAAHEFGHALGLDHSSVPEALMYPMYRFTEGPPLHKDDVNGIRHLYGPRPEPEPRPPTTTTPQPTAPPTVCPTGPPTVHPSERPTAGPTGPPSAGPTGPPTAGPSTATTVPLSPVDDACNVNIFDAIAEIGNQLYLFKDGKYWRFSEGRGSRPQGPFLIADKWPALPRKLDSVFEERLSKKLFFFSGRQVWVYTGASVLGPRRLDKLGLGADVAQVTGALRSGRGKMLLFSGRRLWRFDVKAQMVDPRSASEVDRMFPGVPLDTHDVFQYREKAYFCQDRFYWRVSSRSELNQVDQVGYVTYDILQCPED", "experiment": "Protease counter-screening: MMP-9", "procedure": "as §1, §2, §3, §4\nMMP-9: Human recombinant MMP-9 proenz yme ex pressed in mammalian cells was activated with APMA for 60 min at 37 °C. […] The amount of MCA-P LG formed was read spectrofluorimetricall y at 340 nm/400 nm.\nADAM-17/TACE: Human recombinant ADAM-17 expressed in Sf21 insect cells was used as enz yme sour ce. […] T he amount of MCA-P LAQA formed w as read spectro fluorimetricall y at 340 nm/400 nm.\nAngiotensin converting enzyme: Test compound or vehicle was pre- incubated in modified HEPES buffer pH 7.5 for 15 min at 25 °C with 31 mU/mL angiotensin converting enz yme from rabbit lung. […] The amount of substrate remaining was read spectrophotometricall y at 340 nm and used to deri ve the extent of reaction and its inhibition. […]"}, "[2]": {"target": "T3, cathepsin H purified from human liver (Homo sapiens, UniProt P09668)", "T3 construct": "Tests were performed using cathepsin H purified from human liver; from tissue; host or cells: human liver", "T3 sequence (P09668 98-335)": "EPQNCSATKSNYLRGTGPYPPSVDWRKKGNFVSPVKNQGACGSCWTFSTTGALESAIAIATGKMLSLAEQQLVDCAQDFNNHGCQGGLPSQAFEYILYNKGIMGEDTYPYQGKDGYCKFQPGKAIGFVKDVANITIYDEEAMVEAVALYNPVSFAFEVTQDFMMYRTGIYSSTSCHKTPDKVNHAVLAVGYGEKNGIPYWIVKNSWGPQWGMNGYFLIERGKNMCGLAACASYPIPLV", "experiment": "Protease counter-screening: Cathepsin H", "description": "Cathep sin H: Tests were performed using cathepsin H purified from human liver. Test compound or vehicle was pre -incubated with 3.3 mU/mL enz yme in sodium acetate buffer pH 5.5 for 15 min at 25 °C. The reaction was initiated by addition of 20 µM L-RR- AMC for another"}, "[3]": {"target": "T4, human recombinant caspase 1 (Homo sapiens, UniProt P29466)", "T4 construct": "host or cells: E. coli", "T4 sequence (P29466 120-297 limits assumed)": "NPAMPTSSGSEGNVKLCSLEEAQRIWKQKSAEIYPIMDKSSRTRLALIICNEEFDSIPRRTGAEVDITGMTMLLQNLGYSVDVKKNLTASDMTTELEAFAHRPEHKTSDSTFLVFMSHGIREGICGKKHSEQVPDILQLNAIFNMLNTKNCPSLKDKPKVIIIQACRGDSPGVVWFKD", "T4 sequence (P29466 317-404 limits assumed)": "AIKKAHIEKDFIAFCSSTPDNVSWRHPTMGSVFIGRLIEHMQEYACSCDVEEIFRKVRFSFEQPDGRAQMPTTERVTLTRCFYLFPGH", "experiment": "Protease counter-screening: Caspase 1", "procedure": "as §1, §2, §3, §4, §5, §6\nby addition of 50 µM Ac-DEVD-AMC for another 60 min incubation period. The amount of AMC formed was determined fluorimetricall y (excitation 360 nm/emission 465 nm). […]\nby addition of 25 µM Ac-LEH D-A FC for another 60 min incubation period. The amount of amino-4- trifluorometh ylcoumarin (AFC) formed determined fluorimetrically (400nm/ 510nm).\nCathepsin C: Cathepsin C from bovine spleen was used as the source of enz yme. […] T he amount of AMC product formed was read spectrofluorimetrically"}}}
{"molecule": "CC(C)[C@H](NC(=O)[C@H](C)NC(=O)[C@@H](NC(=O)c1ccccc1)C(C)(C)C)C(=O)C(=O)NCc1ccccc1", "note": "[Compound 38, N-{(S)-1-[(S)-1-((S)-1-Benzylaminooxalyl-2-methyl-propylcarbamoyl)-ethylcarbamoyl]-2,2-dimethyl-propyl}-benzamide]", "values": [{"measurement": "inhibition at 10 µM", "setting": "[1]", "result": 7, "unit": "%"}, {"measurement": "inhibition at 10 µM", "setting": "Human recombinant MMP-9", "result": 5, "unit": "%"}, {"measurement": "inhibition at 10 µM", "setting": "[2]", "result": 13, "unit": "%"}, {"measurement": "inhibition at 10 µM", "setting": "[3]", "result": 8, "unit": "%"}]}
